Reference: article PMC11555717 (Cancer Medicine, 2024)
Square brackets hold non-standard residues; d marks the D form. Peptide text beside a SMILES is read from it. * marks the point of attachment. Dolaproine = CO[C@@H]([C@@H]1CCCN1)[C@@H](C)C(=O)O; Dil = CC[C@H](C)[C@H](NC)[C@@H](CC(=O)O)OC; X1 = C[C@@H](N*)[C@@H](O)c1ccccc1; NMeV = CN[C@H](C(=O)O)C(C)C

Key:
[1] = EV-203 pharmacokinetics of ADC, TAb and free MMAE in serum or plasma; type: in vivo, human; settings: for Time of peak free MMAE concentration postinfusion: after end of enfortumab vedotin infusion
Procedure: In the PK cohort (i.e., PK analysis set), intensive PK sampling was performed wherein blood samples for analysis of ADC, total antibody (TAb), and free (unconjugated) MMAE were collected at prespecified time points. […] Blood samples for antitherapeutic antibodies (ATAs) were collected predose on Day 1 of cycles 1 to 4, 6, 8, 10, and within 30–37 days after the last study dose. Validated assays were used to measure concentrations of ADC, TAb, and free MMAE in serum or plasma and to assess ATA levels.
All patients who received any amount of study drug were included in the primary analyses of efficacy endpoints and safety analyses. The PK analyses included data from patients in the PK cohort who received at least 3 of 4 doses of the study drug through cycle 2 Day 1 and had at least five blood samples collected and assayed for measurements of ADC, TAb, or free MMAE concentrations to determine at least one PK parameter.

[2] = tested on: patients with HER2-positive (IHC2+ or 3+) unresectable locally advanced or mUC; parameters: method as in earlier work; settings: pooled two phase 2 studies, combined N = 107; 95% CI 40.6%–60.3%; cited from earlier work
[3] = cycle 1 Day 1, Non-PK cohort, mean (SD)
[4] = cycle 1 Day 1, PK cohort, mean (SD)
[5] = cycle 1 Day 8, Non-PK cohort, mean (SD)
[6] = cycle 1 Day 8, PK cohort, mean (SD)
[7] = cycle 1 Day 15, Non-PK cohort, mean (SD)
[8] = cycle 1 Day 15, PK cohort, mean (SD)
[9] = plasma, Cycle 1 Day 15, third to first dose, mean (SD)

CC[C@H](C)[C@@H]([C@@H](CC(=O)N1CCC[C@H]1[C@H](OC)[C@@H](C)C(=O)N[C@H](C)[C@@H](O)c1ccccc1)OC)N(C)C(=O)[C@@H](NC(=O)[C@@H](NC)C(C)C)C(C)C [Free MMAE, monomethyl auristatin E] (H-[NMeV]V[Dil][Dolaproine]-X1)
Plasma concentration at end of infusion [1, 3]: 376 (241) [23] pg/mL
Plasma concentration at end of infusion [1, 4]: 357 (154) [13] pg/mL
Plasma concentration at end of infusion [1, 5]: 2720 (1490) [17] pg/mL
Plasma concentration at end of infusion [1, 6]: 1680 (1290) [12] pg/mL
Plasma concentration at end of infusion [1, 7]: 3350 (2600) [11] pg/mL
Plasma concentration at end of infusion [1, 8]: 2110 (1680) [10] pg/mL
Median t max (range) ([1]; plasma, Cycle 1 Day 1): 2.00 (1.87–2.93) days
AUC0–7d ([1]; plasma, Cycle 1 Day 1, after enfortumab vedotin 1.25 mg/kg IV, mean (SD)): 16.9 (9.2) day ng/mL
C max ([1]; plasma, Cycle 1 Day 1, mean (SD)): 3.3 (1.74) ng/mL
Median t max (range) ([1]; plasma, Cycle 1 Day 15): 1.93 (0.86–2.92) days
AUC0–7d ([1]; plasma, Cycle 1 Day 15, after enfortumab vedotin 1.25 mg/kg IV, mean (SD)): 23.3 (16.4) day ng/mL
C max ([1]; plasma, Cycle 1 Day 15, mean (SD)): 4.5 (3.58) ng/mL
R ac (AUC0–7d), accumulation ratio [1, 9]: 1.32 (0.486)
R ac (Cmax), accumulation ratio [1, 9]: 1.28 (0.499)
Time of peak free MMAE concentration postinfusion ([1]; plasma, listed as MMAE): approximately 2 days
Time of peak free MMAE concentration postinfusion ([1]; plasma, listed as free MMAE): 2 to 3 days
Mean accumulation ratios (third to first dose) for maximum concentration and AUC0–7d ([1]; range over ADC, TAb and free MMAE, repeat dosing): 1.03 to 1.32

TAb: total antibody analyte measured in serum after enfortumab vedotin dosing
Serum concentration at end of infusion [1, 3]: 29,100 (5050) [23] ng/mL
Serum concentration at end of infusion [1, 4]: 30,800 (5730) [13] ng/mL
Serum concentration at end of infusion [1, 5]: 29,900 (5450) [17] ng/mL
Serum concentration at end of infusion [1, 6]: 34,300 (6640) [12] ng/mL
Serum concentration at end of infusion [1, 7]: 27,600 (6210) [11] ng/mL
Serum concentration at end of infusion [1, 8]: 33,600 (5450) [10] ng/mL
AUC0–7d ([1]; serum, Cycle 1 Day 1, PK cohort, 1.25 mg/kg IV, mean (SD)): 77.4 (17.3) day μg/mL
C max ([1]; serum, Cycle 1 Day 1, PK cohort, mean (SD)): 31.7 (5.73) μg/mL
AUC0–7d ([1]; serum, Cycle 1 Day 15, PK cohort, 1.25 mg/kg IV, mean (SD)): 94.7 (15.7) day μg/mL
C max ([1]; serum, Cycle 1 Day 15, PK cohort, mean (SD)): 34.4 (4.64) μg/mL
Time of peak serum concentration ([1]; serum, PK cohort cycle 1): at the end of the enfortumab vedotin infusion

B1: disitamab vedotin (conjugate, chains of the INN, looked up)
VH: EVQLVQSGAEVKKPGATVKISCKVSGYTFTDYYIHWVQQAPGKGLEWMGRVNPDHGDSYYNQKFKDKATITADKSTDTAYMELSSLRSEDTAVYFCARNYLFDHWGQGTLVTVSS
VL: DIQMTQSPSSVSASVGDRVTITCKASQDVGTAVAWYQQKPGKAPKLLIYWASIRHTGVPSRFSGSGSGTDFTLTISSLQPEDFATYYCHQFATYTFGGGTKVEIK
modifications: vedotin (MMAE) payload
ORR [2]: 50.5%
